The results in this text go back to ChEMBL document CHEMBL1141832, “A new discorhabdin from two sponge genera” (1999).

≈ marks a conversion by molar mass, not a printed value.

This assay can be described thus: Antitumor activity against human NCI60 cells. The assay is classed as functional.

For orientation: GI50 means the concentration at which growth is held to half of that of the control. The low end stands for more potent growth inhibition, the high end for less potent growth inhibition. `O=C1C=C2S[C@H]3C[C@]2(C=C1Br)C1=C(N3)C(=O)c2[nH]cc3ccnc1c23` [DISCORHABDIN Q] registered a concentration for 50% growth inhibition (GI50) of 0.5 µg/mL (≈ 1.21 µM).
